Data taken from ChEMBL document CHEMBL1149799, “Bioactive peroxides as potential therapeutic agents” (Eur J Med Chem, 2008).
In brackets after ≈: the same amount, converted by molar mass.

Test system: L1210
Assay: Cytotoxicity against mouse L1210 cells
Type: functional, cell-based
Conditions: Mus musculus, L1210

SMILES	IC50
CCCCCCCCCCCCCCC[C@@]1(OC)C=C[C@H](CC(=O)OC)OO1 [PLAKORIN]	0.85 µg/mL (≈ 2.13 µM)
COC(=O)C[C@]1(C)C[C@@](C)(CC(C)CCCC/C=C/CC/C=C\c2ccccc2)OO1 (stereo not given in full)	0.013 µg/mL (≈ 0.0303 µM)
COC(=O)C[C@]1(C)C[C@@](C)(CC(C)CC/C=C/CC/C=C/c2ccccc2)OO1 (stereo not given in full)	0.0043 µg/mL (≈ 0.0107 µM)
C=C[C@@H](O)C#CC#C/C=C/C(CCCCCCC)OO (stereo not given in full) [GINSENOYNE K]	1.8 µg/mL (≈ 6.51 µM)
CC(CCCC/C=C/CC/C=C\c1ccccc1)C[C@]1(C)C[C@@](C)(CC(=O)O)OO1 (stereo not given in full) [PLAKINIC ACID C]	0.017 µg/mL (≈ 0.041 µM)
COC(=O)C[C@@]1(C)C[C@@](C)(CC(C)CC/C=C/CC/C=C/c2ccccc2)OO1 (stereo not given in full)	0.003 µg/mL (≈ 0.00749 µM)

Test system: not listed separately
Assay: Cytotoxicity against human IGRO cells by soft agar assay
Type: functional
Conditions: not given

SMILES	GI50
C=C1CCC[C@@H]2[C@@H](CC[C@@]3(C)CC[C@H]([C@H](C)C(=O)O)OO3)[C@H](C)CC[C@@]12C [SIGMOSCEPTRELLIN B]	100 nM
CC1=C(CC/C(C)=C/CC[C@@]2(C)CC[C@@H]([C@H](C)C(=O)O)OO2)C(C)(C)CCC1 [EPIMUQUBILIN A]	> 5000 nM
C=C1CCCC(C)(C)C1(O)CC/C(C)=C/CC[C@]1(C)CC[C@H]([C@@H](C)C(=O)OC)OO1 (stereo not given in full) [EPIMUQUBILIN B]	> 5000 nM

Test system: BT-549
Assay: Cytotoxicity against human BT549 cells by soft agar assay
Type: functional
Conditions: not given

SMILES	GI50
C=C1CCC[C@@H]2[C@@H](CC[C@@]3(C)CC[C@H]([C@H](C)C(=O)O)OO3)[C@H](C)CC[C@@]12C [SIGMOSCEPTRELLIN B]	960 nM
CC1=C(CC/C(C)=C/CC[C@@]2(C)CC[C@@H]([C@H](C)C(=O)O)OO2)C(C)(C)CCC1 [EPIMUQUBILIN A]	> 5000 nM
C=C1CCCC(C)(C)C1(O)CC/C(C)=C/CC[C@]1(C)CC[C@H]([C@@H](C)C(=O)OC)OO1 (stereo not given in full) [EPIMUQUBILIN B]	> 5000 nM

Test system: LoVo
Assay: Cytotoxicity against human LoVo cells
Type: functional
Conditions: not given

SMILES	MIC
COC(=O)C[C@]1(C)C[C@@](C)(CC(C)CCCC/C=C/CC/C=C\c2ccccc2)OO1 (stereo not given in full)	1 µg/mL (≈ 2.33 µM)
COC(=O)C[C@]1(C)C[C@@](C)(CC(C)CC/C=C/CC/C=C/c2ccccc2)OO1 (stereo not given in full)	0.1 µg/mL (≈ 0.25 µM)
CC(CCCC/C=C/CC/C=C\c1ccccc1)C[C@]1(C)C[C@@](C)(CC(=O)O)OO1 (stereo not given in full) [PLAKINIC ACID C]	0.1 µg/mL (≈ 0.241 µM)
COC(=O)C[C@@]1(C)C[C@@](C)(CC(C)CC/C=C/CC/C=C/c2ccccc2)OO1 (stereo not given in full)	0.1 µg/mL (≈ 0.25 µM)

Test system: HL-60
Assay: Cytotoxicity against human HL60 cells by soft agar assay
Type: functional
Conditions: not given

SMILES	GI50
C=C1CCC[C@@H]2[C@@H](CC[C@@]3(C)CC[C@H]([C@H](C)C(=O)O)OO3)[C@H](C)CC[C@@]12C [SIGMOSCEPTRELLIN B]	140 nM
CC1=C(CC/C(C)=C/CC[C@@]2(C)CC[C@@H]([C@H](C)C(=O)O)OO2)C(C)(C)CCC1 [EPIMUQUBILIN A]	> 5000 nM
C=C1CCCC(C)(C)C1(O)CC/C(C)=C/CC[C@]1(C)CC[C@H]([C@@H](C)C(=O)OC)OO1 (stereo not given in full) [EPIMUQUBILIN B]	> 5000 nM

Test system: KB
Assay: Cytotoxicity against human KB cells
Type: functional, cell-based
Conditions: Homo sapiens

SMILES	MIC
COC(=O)C[C@]1(C)C[C@@](C)(CC(C)CCCC/C=C/CC/C=C\c2ccccc2)OO1 (stereo not given in full)	1 µg/mL (≈ 2.33 µM)
COC(=O)C[C@]1(C)C[C@@](C)(CC(C)CC/C=C/CC/C=C/c2ccccc2)OO1 (stereo not given in full)	1 µg/mL (≈ 2.5 µM)
CC(CCCC/C=C/CC/C=C\c1ccccc1)C[C@]1(C)C[C@@](C)(CC(=O)O)OO1 (stereo not given in full) [PLAKINIC ACID C]	0.01 µg/mL (≈ 0.0241 µM)
COC(=O)C[C@@]1(C)C[C@@](C)(CC(C)CC/C=C/CC/C=C/c2ccccc2)OO1 (stereo not given in full)	0.1 µg/mL (≈ 0.25 µM)

Same assay, conditions: Homo sapiens, KB

SMILES	IC50
CCCCCCCCCCCCCCC[C@@]1(OC)C=C[C@H](CC(=O)OC)OO1 [PLAKORIN]	1.8 µg/mL (≈ 4.52 µM)

Test system: not listed separately
Assay: Cytotoxicity against human LOX cells by soft agar assay
Type: functional
Conditions: not given

SMILES	GI50
C=C1CCC[C@@H]2[C@@H](CC[C@@]3(C)CC[C@H]([C@H](C)C(=O)O)OO3)[C@H](C)CC[C@@]12C [SIGMOSCEPTRELLIN B]	160 nM
CC1=C(CC/C(C)=C/CC[C@@]2(C)CC[C@@H]([C@H](C)C(=O)O)OO2)C(C)(C)CCC1 [EPIMUQUBILIN A]	> 5000 nM

Test system: 786-0
Assay: Cytotoxicity against human renal 7860 cells by soft agar assay
Type: functional
Conditions: not given

SMILES	GI50
C=C1CCC[C@@H]2[C@@H](CC[C@@]3(C)CC[C@H]([C@H](C)C(=O)O)OO3)[C@H](C)CC[C@@]12C [SIGMOSCEPTRELLIN B]	500 nM
CC1=C(CC/C(C)=C/CC[C@@]2(C)CC[C@@H]([C@H](C)C(=O)O)OO2)C(C)(C)CCC1 [EPIMUQUBILIN A]	> 5000 nM
C=C1CCCC(C)(C)C1(O)CC/C(C)=C/CC[C@]1(C)CC[C@H]([C@@H](C)C(=O)OC)OO1 (stereo not given in full) [EPIMUQUBILIN B]	> 5000 nM

Test system: HeLa
Assay: Cytotoxicity against human HeLa cells
Type: functional, cell-based
Conditions: not given

SMILES	IC50
C=C[C@@H](O)C#CC#C/C=C/C(CCCCCCC)OO (stereo not given in full) [GINSENOYNE K]	10.5 µg/mL (≈ 38 µM)

Test system: KM12
Assay: Cytotoxicity against human KM12 cells by soft agar assay
Type: functional
Conditions: not given

SMILES	GI50
C=C1CCC[C@@H]2[C@@H](CC[C@@]3(C)CC[C@H]([C@H](C)C(=O)O)OO3)[C@H](C)CC[C@@]12C [SIGMOSCEPTRELLIN B]	950 nM
CC1=C(CC/C(C)=C/CC[C@@]2(C)CC[C@@H]([C@H](C)C(=O)O)OO2)C(C)(C)CCC1 [EPIMUQUBILIN A]	> 5000 nM
C=C1CCCC(C)(C)C1(O)CC/C(C)=C/CC[C@]1(C)CC[C@H]([C@@H](C)C(=O)OC)OO1 (stereo not given in full) [EPIMUQUBILIN B]	> 5000 nM

Test system: MOLT-4
Assay: Cytotoxicity against human MOLT4 cells by soft agar assay
Type: functional
Conditions: not given

SMILES	GI50
C=C1CCC[C@@H]2[C@@H](CC[C@@]3(C)CC[C@H]([C@H](C)C(=O)O)OO3)[C@H](C)CC[C@@]12C [SIGMOSCEPTRELLIN B]	840 nM
CC1=C(CC/C(C)=C/CC[C@@]2(C)CC[C@@H]([C@H](C)C(=O)O)OO2)C(C)(C)CCC1 [EPIMUQUBILIN A]	> 5000 nM
C=C1CCCC(C)(C)C1(O)CC/C(C)=C/CC[C@]1(C)CC[C@H]([C@@H](C)C(=O)OC)OO1 (stereo not given in full) [EPIMUQUBILIN B]	> 5000 nM

Test system: P388
Assay: Cytotoxicity against mouse P388 cells at 0.05 ug/ml
Type: functional
Conditions: not given

SMILES	inhibition at 0.05 µg/mL
CCCCCCCCCCCCCCC[C@@]1(OC)C=C[C@H](CC(=O)OC)OO1 [PLAKORIN]	50%

Test system: A549
Assay: Cytotoxicity against human A549 cells by soft agar assay
Type: functional
Conditions: not given

SMILES	GI50
C=C1CCC[C@@H]2[C@@H](CC[C@@]3(C)CC[C@H]([C@H](C)C(=O)O)OO3)[C@H](C)CC[C@@]12C [SIGMOSCEPTRELLIN B]	940 nM
CC1=C(CC/C(C)=C/CC[C@@]2(C)CC[C@@H]([C@H](C)C(=O)O)OO2)C(C)(C)CCC1 [EPIMUQUBILIN A]	> 5000 nM
C=C1CCCC(C)(C)C1(O)CC/C(C)=C/CC[C@]1(C)CC[C@H]([C@@H](C)C(=O)OC)OO1 (stereo not given in full) [EPIMUQUBILIN B]	> 5000 nM
